What was measured:
[1] = test system: Mycobacterium tuberculosis Erdman (pMV306hsp+LuxG13); test: log2 fractional inhibitory concentration at 90% inhibition (log2 FIC); higher = more antagonistic
Protocol: (§1)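 DiaMOND pairwise dose responses of an equipotent two-drug mixture (1.5-fold, 10-dose series) against autoluminescent M. tuberculosis Erdman in 384-well plates. Growth inhibition was read by OD600 (luminescence for dormancy) in seven media at a constant and a terminal time point; metrics are means of at least biological duplicates. Einf and AUC25 higher = more potent; GRinf lower = more potent; log2FIC negative = synergy.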

[2] = test system: Mycobacterium tuberculosis Erdman (pMV306hsp+LuxG13); test: log2 fractional inhibitory concentration at 50% inhibition (log2 FIC); higher = more antagonistic
Protocol: as §1

[3] = test system: Mycobacterium tuberculosis Erdman (pMV306hsp+LuxG13); test: AUC25, normalised area under the dose-response curve up to IC25 (normalised AUC (unitless)); higher = more potent
Protocol: as §1

[4] = test system: Mycobacterium tuberculosis Erdman (pMV306hsp+LuxG13); test: GRinf, normalised growth-rate inhibition at infinite dose (GR value (unitless, negative = killing)); higher = less potent
Protocol: as §1

[5] = test system: Mycobacterium tuberculosis Erdman (pMV306hsp+LuxG13); test: Einf, effect of the drug pair at infinite dose (maximum growth inhibition) (fraction inhibition (0-1)); higher = more potent; extreme values may be limits of the assay
Protocol: as §1

COc1nc2ccc(Br)cc2cc1[C@@H](c1ccccc1)[C@@](O)(CCN(C)C)c1cccc2ccccc12 [bedaquiline] + CC(=O)NC[C@H]1CN(c2ccc(N3CCSCC3)c(F)c2)C(=O)O1 [sutezolid]
Conditions	AUC25, [3]	Einf, [5]	GRinf, [4]	log2 fractional inhibitory concentration, [1]	log2 fractional inhibitory concentration, [2]
growth medium: acidic pH 5.7, glycerol, time point: constant time point	0.107	0.875	-0.198	–	-0.156
growth medium: acidic pH 5.7, glycerol, time point: terminal time point	0.0983	0.978	-0.241	-0.436	-0.088
growth medium: butyrate 5 mM, time point: constant time point	0.0619	0.885	0.0684	–	2.21
growth medium: butyrate 5 mM, time point: terminal time point	0.0554	0.949	0.0372	0.353	2.08
growth medium: cholesterol 0.05 mM, time point: constant time point	0.0778	1	-0.927	0.332	0.352
growth medium: cholesterol 0.05 mM, time point: terminal time point	0.132	1	-0.972	0.434	-0.0748
growth medium: cholesterol 0.2 mM (cholesterol-high), time point: constant time point	0.0763	1	-1	0.279	-0.0255
growth medium: cholesterol 0.2 mM (cholesterol-high), time point: terminal time point	0.115	1	-0.792	0.315	-0.681
growth medium: standard 7H9 OADC glycerol, time point: constant = terminal time point (4.2 d)	0.048	0.977	-0.0902	-1.24	-0.344
growth medium: valerate 0.1%, time point: constant time point	0.0485	0.864	-0.287	–	1.21
growth medium: valerate 0.1%, time point: terminal time point	0.09	0.991	-0.176	0.567	0.264

growth medium: hypoxic dormancy (butyrate + nitrate), then recovery
Conditions	AUC25, [3]	Einf, [5]	GRinf, [4]	log2 fractional inhibitory concentration, [1]	log2 fractional inhibitory concentration, [2]
time point: constant time point	0.0577	0.989	0.17	-0.371	-0.353
time point: terminal time point	0.0431	0.975	0.359	-0.465	0.424

COc1nc2ccc(Br)cc2cc1[C@@H](c1ccccc1)[C@@](O)(CCN(C)C)c1cccc2ccccc12 [bedaquiline] + CC(C)=CCC/C(C)=C/CNCCNC1C2CC3CC(C2)CC1C3 [SQ109]
Conditions	AUC25, [3]	Einf, [5]	GRinf, [4]	log2 fractional inhibitory concentration, [1]	log2 fractional inhibitory concentration, [2]
growth medium: butyrate 5 mM, time point: constant time point	0.0731	0.963	-0.11	0.414	0.85
growth medium: butyrate 5 mM, time point: terminal time point	0.0507	0.979	-0.0824	0.616	0.817
growth medium: cholesterol 0.05 mM, time point: constant time point	0.085	0.82	-0.737	–	0.241
growth medium: cholesterol 0.2 mM (cholesterol-high), time point: constant time point	0.0719	1	-0.847	0.667	0.546
growth medium: cholesterol 0.2 mM (cholesterol-high), time point: terminal time point	0.0884	1	-0.779	0.799	0.31
growth medium: standard 7H9 OADC glycerol, time point: constant = terminal time point (4.2 d)	0.0609	0.967	-0.158	–	0.0969
growth medium: valerate 0.1%, time point: constant time point	0.0593	0.996	-0.151	-0.0839	0.191
growth medium: valerate 0.1%, time point: terminal time point	0.047	0.993	-0.127	-0.384	0.276

growth medium: hypoxic dormancy (butyrate + nitrate), then recovery
Conditions	AUC25, [3]	Einf, [5]	GRinf, [4]	log2 fractional inhibitory concentration, [1]	log2 fractional inhibitory concentration, [2]
time point: constant time point	0.0746	0.992	-0.388	1.04	1.24
time point: terminal time point	0.0292	0.964	0.0989	-0.972	-0.811

CC(C)/N=c1\cc2n(-c3ccc(Cl)cc3)c3ccccc3nc-2cc1Nc1ccc(Cl)cc1 [clofazimine] + CC(=O)NC[C@H]1CN(c2ccc(N3CCSCC3)c(F)c2)C(=O)O1 [sutezolid]
Conditions	AUC25, [3]	Einf, [5]	GRinf, [4]	log2 fractional inhibitory concentration, [1]	log2 fractional inhibitory concentration, [2]
growth medium: acidic pH 5.7, glycerol, time point: constant time point	0.101	0.875	0.0525	–	0.684
growth medium: acidic pH 5.7, glycerol, time point: terminal time point	0.108	0.981	-0.188	-0.457	-0.139
growth medium: butyrate 5 mM, time point: constant time point	0.0828	0.911	0.00728	–	-1.05
growth medium: butyrate 5 mM, time point: terminal time point	0.0725	0.961	-0.00637	-1.04	-1.03
growth medium: cholesterol 0.05 mM, time point: constant time point	0.112	1	-1	-0.263	-0.848
growth medium: cholesterol 0.05 mM, time point: terminal time point	0.125	1	-0.651	-0.782	-1.5
growth medium: cholesterol 0.2 mM (cholesterol-high), time point: constant time point	0.1	0.983	-0.741	-0.0175	-0.164
growth medium: cholesterol 0.2 mM (cholesterol-high), time point: terminal time point	0.116	1	-0.833	-0.392	-0.588
growth medium: standard 7H9 OADC glycerol, time point: constant = terminal time point (4.2 d)	0.0934	0.967	-0.00824	-0.528	-0.402
growth medium: valerate 0.1%, time point: constant time point	0.118	0.949	-0.364	–	0.279
growth medium: valerate 0.1%, time point: terminal time point	0.0261	0.967	0.184	-1.6	0.564

growth medium: hypoxic dormancy (butyrate + nitrate), then recovery
Conditions	AUC25, [3]	Einf, [5]	GRinf, [4]	log2 fractional inhibitory concentration, [1]	log2 fractional inhibitory concentration, [2]
time point: constant time point	0.0485	0.988	0.181	-0.341	-0.185
time point: terminal time point	0.0291	0.974	0.351	-0.881	0.178

CC(C)/N=c1\cc2n(-c3ccc(Cl)cc3)c3ccccc3nc-2cc1Nc1ccc(Cl)cc1 [clofazimine] + CC(C)=CCC/C(C)=C/CNCCNC1C2CC3CC(C2)CC1C3 [SQ109]
Conditions	AUC25, [3]	Einf, [5]	GRinf, [4]	log2 fractional inhibitory concentration, [1]	log2 fractional inhibitory concentration, [2]
growth medium: butyrate 5 mM, time point: constant time point	0.0628	0.941	-0.113	-0.83	-0.227
growth medium: butyrate 5 mM, time point: terminal time point	0.0621	0.973	-0.111	-0.678	-0.367
growth medium: cholesterol 0.05 mM, time point: constant time point	0.0691	0.758	-0.558	–	-0.774
growth medium: cholesterol 0.2 mM (cholesterol-high), time point: constant time point	0.0566	0.997	-0.966	-0.582	-0.041
growth medium: cholesterol 0.2 mM (cholesterol-high), time point: terminal time point	0.0744	1	-0.823	-0.374	0.4
growth medium: standard 7H9 OADC glycerol, time point: constant = terminal time point (4.2 d)	0.0939	0.937	-0.0512	–	-0.519

growth medium: hypoxic dormancy (butyrate + nitrate), then recovery
Conditions	AUC25, [3]	Einf, [5]	GRinf, [4]	log2 fractional inhibitory concentration, [1]	log2 fractional inhibitory concentration, [2]
time point: constant time point	0.0761	0.99	-0.486	-2.43	-1.61
time point: terminal time point	0.0554	0.962	0.147	-1.63	-1.78

CC[C@@H](CO)NCCN[C@@H](CC)CO [ethambutol] + CC(=O)NC[C@H]1CN(c2ccc(N3CCSCC3)c(F)c2)C(=O)O1 [sutezolid]
Conditions	AUC25, [3]	Einf, [5]	GRinf, [4]	log2 fractional inhibitory concentration, [1]	log2 fractional inhibitory concentration, [2]
growth medium: acidic pH 5.7, glycerol, time point: constant time point	0.122	0.837	-0.0739	–	-0.476
growth medium: acidic pH 5.7, glycerol, time point: terminal time point	0.0981	0.989	-0.214	0.0843	0.638
growth medium: butyrate 5 mM, time point: constant time point	0.0681	0.911	0.0455	–	0.936
growth medium: butyrate 5 mM, time point: terminal time point	0.0502	0.954	0.0337	-0.108	0.703
growth medium: cholesterol 0.05 mM, time point: constant time point	0.121	1	-1	-0.482	0.779
growth medium: cholesterol 0.05 mM, time point: terminal time point	0.104	1	-0.945	-1.28	-0.083
growth medium: cholesterol 0.2 mM (cholesterol-high), time point: constant time point	0.0903	1	-1	–	-0.151
growth medium: cholesterol 0.2 mM (cholesterol-high), time point: terminal time point	0.109	1	-0.852	-0.0598	-0.578
growth medium: standard 7H9 OADC glycerol, time point: constant = terminal time point (4.2 d)	0.0717	0.982	-0.118	0.432	0.607
growth medium: valerate 0.1%, time point: constant time point	0.132	0.931	-1	–	-0.351
growth medium: valerate 0.1%, time point: terminal time point	0.0852	0.975	-0.02	0.287	0.139

growth medium: hypoxic dormancy (butyrate + nitrate), then recovery
Conditions	AUC25, [3]	Einf, [5]	GRinf, [4]	log2 fractional inhibitory concentration, [1]	log2 fractional inhibitory concentration, [2]
time point: constant time point	0.0614	0.989	-0.104	–	0.45
time point: terminal time point	0.0966	0.979	-0.187	0.341	1.4

Source: the supplement of paper PMC9512659
